Measurements reported in article PMC6214715 (Journal of veterinary pharmacology and therapeutics, 2018).
Like-named read-outs stand apart in the source and are kept apart here.

Assays:
[1] = target: T1, CYP1A2 (Canis lupus familiaris, UniProt P56592); format: in vitro ADME, canine; conditions: recombinant CYP1A2; (+)-M1 10 μM, (+)-M2 0.5 μM
T1 sequence (P56592 1-512): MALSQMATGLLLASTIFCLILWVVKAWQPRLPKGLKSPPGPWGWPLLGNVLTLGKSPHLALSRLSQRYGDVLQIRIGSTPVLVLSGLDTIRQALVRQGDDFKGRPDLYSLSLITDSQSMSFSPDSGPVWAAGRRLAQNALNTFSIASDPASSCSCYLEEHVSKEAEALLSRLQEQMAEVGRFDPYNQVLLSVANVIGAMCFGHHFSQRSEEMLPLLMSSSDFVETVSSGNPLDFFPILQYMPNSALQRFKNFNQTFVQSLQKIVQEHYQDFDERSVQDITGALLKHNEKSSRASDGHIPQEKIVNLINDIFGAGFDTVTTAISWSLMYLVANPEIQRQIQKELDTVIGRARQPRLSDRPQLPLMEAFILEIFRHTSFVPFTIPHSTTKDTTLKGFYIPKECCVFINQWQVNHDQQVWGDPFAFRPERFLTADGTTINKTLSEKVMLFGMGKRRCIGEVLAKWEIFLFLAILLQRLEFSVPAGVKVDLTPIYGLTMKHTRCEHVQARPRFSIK

[2] = target: T2, CYP2C21 (Canis lupus familiaris, UniProt P56594); format: in vitro ADME, canine; conditions: recombinant CYP2C21; (+)-M1 10 μM, (+)-M2 0.5 μM
T2 sequence (P56594 1-487): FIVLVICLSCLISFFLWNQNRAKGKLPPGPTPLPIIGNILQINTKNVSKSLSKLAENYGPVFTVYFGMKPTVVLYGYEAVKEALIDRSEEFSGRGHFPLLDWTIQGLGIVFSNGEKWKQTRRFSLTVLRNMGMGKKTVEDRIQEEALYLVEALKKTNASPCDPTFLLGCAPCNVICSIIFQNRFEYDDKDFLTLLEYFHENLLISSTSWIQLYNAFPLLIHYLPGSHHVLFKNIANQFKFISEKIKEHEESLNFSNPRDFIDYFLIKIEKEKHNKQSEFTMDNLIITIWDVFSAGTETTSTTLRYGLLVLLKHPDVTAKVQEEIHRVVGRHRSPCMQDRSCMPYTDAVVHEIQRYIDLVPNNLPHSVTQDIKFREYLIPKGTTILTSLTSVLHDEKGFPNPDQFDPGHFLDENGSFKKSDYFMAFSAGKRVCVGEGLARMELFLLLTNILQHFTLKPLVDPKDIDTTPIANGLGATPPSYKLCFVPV

[3] = target: T3, CYP2D15 (Canis lupus familiaris, UniProt Q29473); format: in vitro ADME, canine; conditions: recombinant CYP2D15; (+)-M1 10 μM, (+)-M2 0.5 μM
T3 sequence (Q29473 1-500): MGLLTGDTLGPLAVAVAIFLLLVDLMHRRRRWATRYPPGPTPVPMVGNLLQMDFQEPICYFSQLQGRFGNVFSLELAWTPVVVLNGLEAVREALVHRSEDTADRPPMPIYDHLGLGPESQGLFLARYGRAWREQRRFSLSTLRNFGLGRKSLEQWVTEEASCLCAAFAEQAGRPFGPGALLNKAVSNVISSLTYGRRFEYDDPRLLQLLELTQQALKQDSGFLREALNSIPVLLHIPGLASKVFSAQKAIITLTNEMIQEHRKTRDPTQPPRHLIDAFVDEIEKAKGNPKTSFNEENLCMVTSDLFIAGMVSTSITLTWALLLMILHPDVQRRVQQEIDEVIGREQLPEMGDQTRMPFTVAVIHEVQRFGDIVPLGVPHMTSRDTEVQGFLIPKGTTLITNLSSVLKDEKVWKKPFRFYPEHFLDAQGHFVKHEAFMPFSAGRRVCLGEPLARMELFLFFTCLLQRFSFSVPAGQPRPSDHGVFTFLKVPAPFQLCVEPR

[4] = tested on: dog liver microsomes; format: in vitro ADME; conditions: for Km / Vmax: formation of (+)-M5 from substrate
[5] = target: T4, CYP1A1 (Canis lupus familiaris, UniProt P56590); format: in vitro ADME, canine; conditions: recombinant CYP1A1; (+)-M1 10 μM, (+)-M2 0.5 μM
T4 sequence (P56590 1-524): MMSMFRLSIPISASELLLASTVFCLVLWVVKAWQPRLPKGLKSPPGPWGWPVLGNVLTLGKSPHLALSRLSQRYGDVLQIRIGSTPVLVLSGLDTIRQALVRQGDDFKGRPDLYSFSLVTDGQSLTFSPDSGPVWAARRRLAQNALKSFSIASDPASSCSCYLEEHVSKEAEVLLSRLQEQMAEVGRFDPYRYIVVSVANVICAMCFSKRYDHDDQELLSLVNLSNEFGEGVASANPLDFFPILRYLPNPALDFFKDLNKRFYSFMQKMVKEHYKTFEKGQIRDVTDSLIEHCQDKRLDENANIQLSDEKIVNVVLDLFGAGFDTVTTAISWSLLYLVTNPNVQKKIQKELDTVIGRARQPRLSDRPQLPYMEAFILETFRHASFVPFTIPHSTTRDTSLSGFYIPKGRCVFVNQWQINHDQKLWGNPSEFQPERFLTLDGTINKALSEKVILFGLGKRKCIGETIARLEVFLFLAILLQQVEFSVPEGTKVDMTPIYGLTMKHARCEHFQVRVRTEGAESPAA

[6] = tested on: human liver microsomes; format: in vitro ADME; conditions: pooled human liver microsomes (n = 48); (+)-M1 at 10 μM, (+)-M2 at 0.5 μM

`CN(C)CC1CCCCC1(O)c1cccc(O)c1.Cl` (single isomer, unassigned; (+)) [(+)-M1, (+)-O-desmethyltramadol hydrochloride] was tested, and the “formation rate of (+)-M5 (in words)” value [1] was “only very low activities”, the “formation rate of (+)-M5 (in words)” value [2] was “highest” and the “formation rate of (+)-M5 (in words)” value [3] was “only very low activities”. The Km ([4]; Dog 10 liver microsomes) was 158 µM, the Vmax ([4]; Dog 10 liver microsomes) was 63 pmol/min/mg protein and the Km ([4]; Dog 31 liver microsomes) was 64 µM. The Vmax ([4]; Dog 31 liver microsomes) was 67 pmol/min/mg protein, the Km ([4]; Dog 46 liver microsomes) was 108 µM and the Vmax ([4]; Dog 46 liver microsomes) was 94 pmol/min/mg protein. The Km ([4]; pDLM (liver microsomes pooled from 59 dogs)) was 112 µM, the Vmax ([4]; pDLM (pooled from 59 dogs)) was 61 pmol/min/mg protein and the “(+)-M5 formation rate (in words)” value ([4]; pooled dog liver microsomes (n = 59), (+)-M1 at 10 μM, (+)-M2 at 0.5 μM) was “highest activities”. For the same compound, the “formation rate of (+)-M5 (in words)” value [5] was “only very low activities” and the “(+)-M5 formation rate (in words)” value [6] was “low activities”.
